# Experimental data reported in US8680253B2 (OliPass Corporation, priority 2008, dated 2014).
# {Fam-L(1)L(1)} = N-terminal fluorescein (Fam) label attached through two L(1) linkers; {Fam-L(2)} = N-terminal fluorescein (Fam) label attached through linker L(2); {Lys-NH2} = C-terminal lysine amide
# Legend:
# [1] = system: MCF-7 cells; assay: Cell penetration of fluorescein-tagged PNA oligomers, confocal fluorescence microscopy; assay type: cell-based, human; settings: 2.5 μM, 0.5 and 1 h, without FBS, 63× objective
# Protocol: (§1) In order to evaluate the cell penetration ability of PNA oligomers of this invention, cancer cells of human origin were treated with PNA oligomers covalently tagged with fluorescein. The applied method is provided in brief as follows.
# (§2) To each cover glass (autoclaved) placed in each well of a 24-well plate, were seeded 20,000˜100,000 cells depending on the growth rate of the cell line used, and the cells were cultured at 37° C. and 5% CO2 for 16 to 24 h. Then the medium was replaced with 500 μl fresh Opti-MEM medium (with or without 1% FBS), to which was added an aliquot of aq stock solution of a PNA oligomer covalently tagged with fluorescein. After cells were cultured for a designated interval, the cells were washed with PBS, and fixed by incubating in 3.7% or 4% paraformaldehyde. The cells were thoroughly washed several times with PBS or PBS containing 0.1% Tween-20. Then the cover glass was mounted onto a slide glass using a drop of mounting solution and sealed with nail polish for confocal fluorescence microscopy. Fluorescence images were taken either on a Zeiss LSM 510 confocal microscope (Germany) at 63× objective or on a Nikon C1Si confocal microscope at 40× objective.
# [2] = system: HeLa cells; assay: as above; assay type: cell-based, human; settings: 40× objective
# Protocol: as §1, §2
# [3] = system: JAR cells; assay: as above; assay type: cell-based, human; settings: 2 μM, 24 h, without FBS, 40× objective
# Protocol: as §1, §2
# [4] = system: A549 cells; assay: as above; assay type: cell-based, human; settings: 2 μM, 24 h, without FBS, 40× objective
# Protocol: as §1, §2
# [5] = system: apoB-100; settings: a certain population of atherosclerosis patients; cited from earlier work
Substance,"cell penetration, fluorescence intensity [1]","cell penetration, fluorescence intensity [3]","cell penetration, fluorescence intensity [4]",also measured
"Fam-L(1)L(1)-TC(1O3)T-CC(1O3)C-AGC(1O3)-GTG-C(1O3)GC-C(1O3)AT-Lys-NH2 (TCTCCCAGCGTGCGCCAT; Fam-L(1)L(1) label, modified PNA, Lys-NH2, chemistry not fully specified) [Oligo 6, fluorescein-tagged modified PNA oligomer]",fluorescence intensity is clear and becomes intense over 1 h,,,"cell penetration, fluorescence intensity ([2]; 1 μM, 6 or 24 h, with 1% FBS): fluorescence intensity is clear and becomes intense over 24 h"
"Fam-L(1)L(1)-TCT-CCC-AGC-GTG-CGC-CAT-Lys-NH2 (TCTCCCAGCGTGCGCCAT; all peptide nucleic acid (PNA), 5' {Fam-L(1)L(1)}, 3' {Lys-NH2}) [Oligo 7, fluorescein-tagged 'unmodified' PNA oligomer, reference compound]",fluorescence intensity is faint,,,
"Fam-L(2)-TGG-CAA-CTG-AT-Lys-NH2 (TGGCAACTGAT; all peptide nucleic acid (PNA), 5' {Fam-L(2)}, 3' {Lys-NH2}) [Oligo 28, fluorescein-tagged 'unmodified' PNA oligomer, reference compound]",,no significant fluorescence intensity,no significant fluorescence intensity,"cell penetration, fluorescence intensity ([2]; 2 μM, 12 h, without FBS): no significant fluorescence intensity"
"Fam-L(2)-TT-C(1O2)AT-A(5)GT-A(5)TA-AG(5)T-Lys-NH2 (TTCATAGTATAAGT; Fam-L(2) label, modified PNA, Lys-NH2, chemistry not fully specified) [Oligo 22, fluorescein-tagged modified PNA oligomer]",,good cell penetration,good cell penetration,"cell penetration, fluorescence intensity ([2]; 2 μM, 24 h, without FBS): good cell penetration"
Mipomersen,,,,clinical activity [5]: due clinical activity
